Results reported in BindingDB's records for doi:10.1021/jm00010a025 (Merck Sharp & Dohme Research Laboratories, 1995).

Experiments:
[1] = Binding activity against 5-hydroxytryptamine 3 receptor from rat cortex homogenate using [3H]-Q-ICS 205-930 as radioligand.
[2] = Binding activity against 5-hydroxytryptamine 2C receptor from pig cortex membrane using [3H]mesulergine as radioligand.
[3] = Binding activity against 5-hydroxytryptamine 3 receptor from rat cortex homogenate using [3H]-Q-ICS 205-930 as radioligand; NA Not Available
[4] = Binding activity against 5-hydroxytryptamine 3 receptor from rat cortex homogenate using [3H]-Q-ICS 205-930 as radioligand.; remark: listed apart in the source

## CN(C)CCc1c[nH]c2ccc(Cc3nncn3C)cc12
[1]
  IC50: 25.1 nM

## CCn1nnnc1Cc1ccc2[nH]cc(CCN(C)C)c2c1
[1]
  IC50: 25.1 nM
[2]
  IC50: > 10000 nM

## CN(C)CCc1c[nH]c2ccc(Cc3nnn[nH]3)cc12
[1]
  IC50: 3980 nM
[2]
  IC50: > 10000 nM

## CN(C)CCc1c[nH]c2ccc(Cn3ccnn3)cc12
[3]
  IC50: 50.1 nM

## CN(C)CCc1c[nH]c2ccc(Cc3nnn(C)n3)cc12
[1]
  IC50: 79.4 nM

## CN(C)CCc1c[nH]c2ccc(Cn3ccnc3)cc12
[2]
  IC50: 3980 nM
[4]
  IC50: 31.6 nM

## CN(C)CCc1c[nH]c2ccc(Cc3nnnn3C)cc12
[1]
  IC50: 25.1 nM

## CN(C)CCc1c[nH]c2ccc(Cn3ncnn3)cc12
[1]
  IC50: 39.8 nM
[2]
  IC50: 1000 nM

## Cc1nccn1Cc1ccc2[nH]cc(CCN(C)C)c2c1
[1]
  IC50: 63.1 nM
[2]
  IC50: 3160 nM

## CCn1nnc(Cc2ccc3[nH]cc(CCN(C)C)c3c2)n1
[1]
  IC50: 126 nM

## CN(C)CCc1c[nH]c2ccc(Cc3ncnn3C)cc12
[2]
  IC50: > 10000 nM
[4]
  IC50: 100 nM

## Cc1nccn1-c1ccc2[nH]cc(CCN(C)C)c2c1
[1]
  IC50: 7.94 nM

## CN(C)CCc1c[nH]c2ccc(Cn3cnnn3)cc12
[1]
  IC50: 39.8 nM
[2]
  IC50: 2000 nM
